Results as given in patent US20230233492A1, “PHARMACEUTICAL COMBINATION COMPRISING A BRAIN AMINOPEPTIDASE A INHIBITOR, A DIURETIC AND A BLOCKER OF THE SYSTEMIC RENIN-ANGIOTENSIN SYSTEM” (QUANTUM GENOMICS, priority 2020, published 2023).

Tests used:
[1] = test system: conscious hypertensive DOCA-salt rats; experiment: Acute oral administration: MABP and HR recording in conscious freely moving DOCA-salt rats; format: in vivo, rat; conditions: single oral administration
Description: Male deoxycorticosterone acetate (DOCA)-salt rats weighing 250 to 350 g were purchased from Charles River Laboratories (L'Arbresle, France). Animals were randomly assigned in each group with allocation concealment, and blinding procedures were used with coding systemAnimal care and surgical procedures were performed according to the Directive 2010/63/EU. The project was submitted to the appropriate ethics committee and authorization was obtained: 30 CEEA No 59, reference number 01962.01. Animals were kept under artificial light (12 h light/12 h dark cycle) with ad libitum access to a standard diet and saline water (0.9% NaCl, 0.2% KCl).
Male DOCA-salt rats were anesthetized with 3% isoflurane (Iso-Vet®, Piramal, UK) for induction and 1.5-2% isoflurane for maintenance. A catheter (0.011″X.024″X.0065″) was inserted into the right femoral artery to monitor mean arterial blood pressure (MABP) and heart rate (HR). The catheters were tunneled subcutaneously to exit from the neck. Animals were allowed to recover from surgery for at least 48 h before MABP recording. Baseline MABP was recorded before drug administration during 30 minutes to 1 hour. One hour after the start of BP recording, firibastat (30 mg/kg), enalapril (5 or 10 mg/kg) and HCTZ (5 or 10 mg/kg) alone or in combination at different doses were administered to the conscious unrestrained rats by oral route. After compound administration, BP was monitored for 6 hours. MABP was calculated with the […] system (Phymep, Paris, France), consisting of a MatLab hardware unit and CHART software, running on a Macintosh computer. MABP and HR measurements were calculated by the BP signal.

[2] = test system: spontaneously hypertensive rats (SHRs); conditions: oral administrations, 15 to 150 mg/kg; cited from earlier work
[3] = test system: conscious hypertensive deoxycorticosterone acetate (DOCA) salt rats; conditions: oral administrations, 15 to 150 mg/kg; cited from earlier work
hypertensive patients = conditions: monotherapy; mild to moderate hypertensive patients and diverse high-risk hypertensive population; cited from earlier work

SMILES: NS(=O)(=O)c1cc2c(cc1Cl)NCNS2(=O)=O [HCTZ, hydrochlorothiazide]
- change in BP ([1]; HCTZ 10 mg/kg alone): did not induce any significant change in BP

SMILES: CCOC(=O)[C@H](CCc1ccccc1)N[C@@H](C)C(=O)N1CCC[C@H]1C(=O)O [enalapril]
- change in BP ([1]; enalapril 10 mg/kg alone): did not induce any significant change in BP

SMILES: N[C@@H](CCS(=O)(=O)O)CSSC[C@@H](N)CCS(=O)(=O)O [firibastat, (3S,3S′) 4,4′-disulfanediylbis(3-aminobutane 1-sulfonic acid)]
- effect on BP [2]: dose-dependent decrease in BP
- effect on BP [3]: dose-dependent decrease in BP
- effect on BP (hypertensive patients): lower BP
- decrease in BP (change in MABP from baseline) ([1]; firibastat 30 mg/kg alone, 5 h post-dosing): −35.4±5.2 mmHg
